In patent publication US20230210864A1, “AGENT FOR PROMOTING CORNEAL ENDOTHELIAL CELL ADHESION” (Senju Pharmaceutical Co., Ltd., priority 2007, published 2023):

Experiments:
Format in all cases: cell-based, Macaca fascicularis
[1] = tested on: monkey corneal endothelial cells; assay: Primary culture of monkey corneal endothelial cells with Y-27632, phase contrast observation; conditions: Y-27632 10 μM
Description: From the corneal tissue isolated from Macaca fascicularis euthanized for other purpose, Descemet's membrane with corneal endothelial cells attached thereto was separated. For the ROCK inhibitor(+) group, the Descemet's membrane was placed in a medium for corneal endothelium added with Y-27632 (10 μM) and incubated under the conditions of 37° C., 5% CO2 for 10 min. For the ROCK inhibitor(−) group, the membrane was placed in a medium for corneal endothelium without addition of Y-27632 and incubated for 10 min under the same conditions. As the medium for corneal endothelium, the same cell culture medium as in Example 1 was used. The Descemet's membrane after the incubation was incubated together with Dispase II (1.2 U/ml, Roche Applied Science) under the conditions of 37° C., 5% CO2 for 45 min, and the corneal endothelial cells were mechanically separated by a pipetting operation. The separated corneal endothelial cells were centrifuged and stirred in the media for corneal endothelium with Y-27632(+) and Y-27632(−) to the same concentration, and the cells were seeded on a 12 well plate at a density of about 20000 cells per well. The plate was pre-treated with an FNC coating mix (Athena ES) for 10 min. […]

[2] = tested on: monkey corneal endothelial cells; assay: Optimal concentration of Y-27632 for monkey corneal endothelial cells, viable cell count by CellTiter-Glo
Description: Monkey corneal endothelial cells (primary culture) collected in the same manner as in Example 2 were placed in media for corneal endothelium each added with Y-27632 at 1, 10, 33 and 100 μM and a medium for corneal endothelium without addition of Y-27632, and stirred to the same concentration, and the cells were seeded on a 96 well plate at a density of about 2000 cells per well. At 24 hr from the start of the culture, viable cells were counted using CellTiter-Glo (registered trade mark, Promega) (FIG. 7).

[3] = tested on: monkey corneal endothelial cells; assay: Passage culture of monkey corneal endothelial cells with Y-27632, cell count by CellTiter-Glo; conditions: Y-27632 10 μM, dilution ½, ⅙ or ⅛
Description: From the corneal tissue isolated from Macaca fascicularis euthanized, Descemet's membrane with corneal endothelial cells attached thereto was separated. The Descemet's membrane was incubated together with Dispase II (1.2 U/ml, Roche Applied Science) under the conditions of 37° C., 5% CO2 for 45 min, and the corneal endothelial cells were mechanically separated by a pipetting operation. The separated corneal endothelial cells were centrifuged and seeded on a media for corneal endothelium. The corneal endothelial cells that reached confluent were incubated with 0.05% trypsin under the conditions of 37° C., 5% CO2 for 10 min, and passage-cultured. After 4 to 6 passages, the corneal endothelial cells were placed in a 96-well plate to a dilution of ½, ⅙ or ⅛. The passage culture was continued using a medium for corneal endothelium added with Y-27632 (10 μM) for the ROCK inhibitor(+) group and a medium for corneal endothelium without addition of Y-27632 for the ROCK inhibitor(−) group. At 24 hr after the passage, the cells were counted in the same manner as in Example 5 using CellTiter-Glo (registered trade mark, Promega) (FIG. 8).

[4] = tested on: monkey corneal endothelial cells; assay: Cell morphology in passage culture of monkey corneal endothelial cells (phase contrast, phalloidin fluorescence staining); conditions: passage culture on slide glass
Description: The Macaca fascicularis corneal endothelial cells passage-cultured in the same manner as in Example 6 were subcultured on a slide glass to a dilution of ¼. […] Furthermore, the corneal endothelial cells on the slide glass were fixed with 4% para-formaldehyde at room temperature for 10 min, and actin fiber was stained by phalloidin fluorescence staining (FIGS. 10A and 10B).

[5] = tested on: monkey corneal endothelial cells; assay: Apoptosis of monkey corneal endothelial cells (flow cytometry with Annexin V and PI); conditions: Y-27632 10 μM, day 1 of the passage culture
Description: The Macaca fascicularis corneal endothelial cells passage-cultured in the same manner as in Example 6 were subcultured to a dilution of ¼. A medium for corneal endothelium added with Y-27632 (10 μM) was used for the ROCK inhibitor(+) group and a medium for corneal endothelium without addition of Y-27632 was used for the ROCK inhibitor(−) group. On day 1 of the passage culture, all the cells including those in the medium were collected using 0.05% trypsin and subjected to flow cytometry using Annexin V and PI (Propidium Iodide), and apoptosis was examined (FIGS. 14 and 15).

[6] = tested on: monkey corneal endothelial cells; assay: Density of cultured monkey corneal endothelial cells over repeated passages; conditions: Y-27632 10 μM, passage repeated 7 times
Description: From the corneal tissue isolated from Macaca fascicularis euthanized, Descemet's membrane with corneal endothelial cells attached thereto was separated. The Descemet's membrane was incubated together with Dispase II (1.2 U/ml, Roche Applied Science) under the conditions of 37° C., 5% CO2 for 45 min, and the corneal endothelial cells were mechanically separated by a pipetting operation. The separated corneal endothelial cells were centrifuged and seeded on a medium for corneal endothelium. The corneal endothelial cells that reached confluent were incubated with 0.05% trypsin under the conditions of 37° C., 5% CO2 for 10 min, and passage-cultured. A medium for corneal endothelium added with Y-27632 (10 μM) was used for the ROCK inhibitor(+) group and a medium for corneal endothelium without addition of Y-27632 was used for the ROCK inhibitor(−) group. At 72 hr from the start of the culture, the culture medium was exchanged and, after 72 hr, both the ROCK inhibitor(+) group and ROCK inhibitor(−) group were cultured in a normal medium for corneal endothelium free of Y-27632. On every passage, photographs of the cells were taken with a phase contrast microscope, cell density was measured, and the influence of Y-27632 on the density of the cultured monkey corneal endothelial cells was studied.

CC(N)[C@H]1CC[C@H](C(=O)Nc2ccncc2)CC1 (single isomer, unassigned; (+)) [Y-27632, (+)-trans-4-(1-aminoethyl)-1-(4-pyridylcarbamoyl)cyclohexane]
number of days before reaching confluent ([1]; 7 for ROCK inhibitor(−)): 3 days
cells adhered onto the plate as compared to ROCK inhibitor(−) ([1]; after 24 hr from the start of the culture): apparently more cells were adhered onto the plate
most effective concentration for monkey corneal endothelial cells ([2]; of 1, 10, 33 and 100 μM, 24 hr): 10 µM
number of cells that adhered onto the plate at 24 hr, compared to medium without Y-27632 and media with other concentrations ([2]; primary culture, 10 μM Y-27632 (1, 10, 33 and 100 μM tested)): significantly high
number of cells that adhered onto the plate at 24 hr after the passage, compared to medium without Y-27632 [3]: significantly high
actin stress fiber (phalloidin fluorescence staining) ([4]; 24 hr): actin stress fiber was clearly observed
cell adhesion and morphology at 24 hr after the passage (phase contrast) ([4]; dilution ¼): adhesion of the cells onto the slide glass increased, flattening to corneal endothelial cell-like cells was promoted, and aggregation of cells also increased
number of apoptotic cells per 1×10^4 cells, compared to ROCK inhibitor(−) group [5]: significant decrease
ratio of apoptotic cells to the entire cells, compared to ROCK inhibitor(−) group [5]: significant decrease
cell density throughout the passage culture, compared to ROCK inhibitor(−) group [6]: higher cell density
